# Data taken from patent US10472347B2, “Aminopyrazine compounds with A2A antagonist properties” (Merck Sharp & Dohme Corp., priority 2014, dated 2019).
# Target: T1, human A2a receptor (Homo sapiens, UniProt P29274)
# T1 construct: purchased Perkin-Elmer RBHA2AM400UA; host or cells: HEK293 cells (membranes)
# Experiment: A2a competition binding assay, Scintillation Proximity technology
# Conditions: membranes from HEK293 cells expressing human A2a receptor; Ki by Cheng-Prusoff equation
# In short: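 Membranes from HEK293 cells expressing human A2a, adenosine deaminase-treated, incubated 1 h at room temperature with compound (3000 to 0.15 nM) and 0.5 nM tritiated pyrazolotriazolopyrimidine radioligand on WGA SPA beads in Ca/Mg-free PBS + 10 mM MgCl2. Non-specific binding with 1 μM CGS15943; Ki by Cheng-Prusoff.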
# T1 sequence (P29274 whole entry): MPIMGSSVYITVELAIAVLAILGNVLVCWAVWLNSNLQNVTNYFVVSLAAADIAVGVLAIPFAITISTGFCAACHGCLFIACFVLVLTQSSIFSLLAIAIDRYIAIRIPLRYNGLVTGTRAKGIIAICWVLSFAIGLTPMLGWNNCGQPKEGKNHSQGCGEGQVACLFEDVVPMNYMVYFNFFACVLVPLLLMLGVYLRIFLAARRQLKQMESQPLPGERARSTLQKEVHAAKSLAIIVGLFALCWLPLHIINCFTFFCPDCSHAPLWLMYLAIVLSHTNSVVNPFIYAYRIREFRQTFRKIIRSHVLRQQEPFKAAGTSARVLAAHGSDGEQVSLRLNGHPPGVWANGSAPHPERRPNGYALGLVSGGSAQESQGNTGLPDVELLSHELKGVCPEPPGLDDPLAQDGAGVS
row,Structure (SMILES),Ki
1,"Cc1nc(C(=O)NCC(=O)N2CCC2)c(N)nc1-c1ncco1 [Ex-68, 3-amino-N-(2-azetidin-1-yl-2-oxoethyl)-6-methyl-5-(1,3-oxazol-2-yl)pyrazine-2-carboxamide]",27.3 nM
2,"Cc1nc(C(=O)NCc2cncnc2)c(N)nc1-c1ncco1 [Ex-69, 3-amino-6-methyl-5-(1,3-oxazol-2-yl)-N-(pyrimidin-5-ylmethyl)pyrazine-2-carboxamide]",56.5 nM
3,"Cc1ccc(CNC(=O)c2nc(C)c(-c3ncco3)nc2N)c(C)n1 [Ex-70, 3-amino-N-[(2,6-dimethylpyridin-3-yl)methyl]-6-methyl-5-(1,3-oxazol-2-yl)pyrazine-2-carboxamide]",41 nM
4,"Cc1nc(C)c(CNC(=O)c2nc(C)c(-c3ncco3)nc2N)s1 [Ex-71, 3-amino-N-[(2,4-dimethyl-1,3-thiazol-5-yl)methyl]-6-methyl-5-(1,3-oxazol-2-yl)pyrazine-2-carboxamide]",23.8 nM
5,"Cc1nc(C(=O)NCc2ncccc2Cl)c(N)nc1-c1ncco1 [Ex-72, 3-amino-N-[(3-chloropyridin-2-yl)methyl]-6-methyl-5-(1,3-oxazol-2-yl)pyrazine-2-carboxamide]",0.287 nM
6,"Cc1cnc(F)c(CNC(=O)c2nc(C)c(-c3ncco3)nc2N)c1 [Ex-73, 3-amino-N-[(2-fluoro-5-methylpyridin-3-yl)methyl]-6-methyl-5-(1,3-oxazol-2-yl)pyrazine-2-carboxamide]",4.64 nM
7,"Cc1nc(C(=O)NCc2ncc(Cl)cc2F)c(N)nc1-c1ncco1 [Ex-74, 3-amino-N-[(5-chloro-3-fluoropyridin-2-yl)methyl]-6-methyl-5-(1,3-oxazol-2-yl)pyrazine-2-carboxamide]",2.27 nM
8,"Cc1nc(C(=O)NCc2cc(C(F)F)nc(C(F)F)c2)c(N)nc1-c1ncco1 [Ex-75, 3-amino-N-{[2,6-bis(difluoromethyl)pyridin-4-yl]methyl}-6-methyl-5-(1,3-oxazol-2-yl)pyrazine-2-carboxamide]",40.4 nM
9,"Cc1nc(C(=O)NCc2ccncn2)c(N)nc1-c1ncco1 [Ex-76, 3-amino-6-methyl-5-(1,3-oxazol-2-yl)-N-(pyrimidin-4-ylmethyl)pyrazine-2-carboxamide]",50.1 nM
10,"Cc1cn(C)nc1CNC(=O)c1nc(C)c(-c2ncco2)nc1N [Ex-77, 3-amino-N-[(1,4-dimethyl-1H-pyrazol-3-yl)methyl]-6-methyl-5-(1,3-oxazol-2-yl)pyrazine-2-carboxamide]",0.828 nM
11,"Cc1nc(C(=O)NCc2cnn(C)c2C)c(N)nc1-c1ncco1 [Ex-78, 3-amino-N-[(1,5-dimethyl-1H-pyrazol-4-yl)methyl]-6-methyl-5-(1,3-oxazol-2-yl)pyrazine-2-carboxamide]",5.72 nM
12,"CCn1ccnc1CNC(=O)c1nc(C)c(-c2ncco2)nc1N [Ex-79, 3-amino-N-[(1-ethyl-1H-imidazol-2-yl)methyl]-6-methyl-5-(1,3-oxazol-2-yl)pyrazine-2-carboxamide]",0.34 nM
13,"COc1ccc(C)c(CNC(=O)c2nc(C)c(-c3ncco3)nc2N)n1 [Ex-80, 3-amino-N-[(6-methoxy-3-methylpyridin-2-yl)methyl]-6-methyl-5-(1,3-oxazol-2-yl)pyrazine-2-carboxamide]",1.59 nM
14,"Cc1cc(C)nc(CNC(=O)c2nc(C)c(-c3ncco3)nc2N)n1 [Ex-81, 3-amino-N-[(4,6-dimethylpyrimidin-2-yl)methyl]-6-methyl-5-(1,3-oxazol-2-yl)pyrazine-2-carboxamide]",2.8 nM
15,"Cc1nc(C(=O)NC2CCC(F)(F)CC2)c(N)nc1-c1ncco1 [Ex-83, 3-amino-N-(4,4-difluorocyclohexyl)-6-methyl-5-(1,3-oxazol-2-yl)pyrazine-2-carboxamide]",3.18 nM
16,"Cc1nc(C(=O)NCc2cccc(C(C)C)n2)c(N)nc1-c1ncco1 [Ex-85, 3-amino-6-methyl-N-{[6-(1-methylethyl)pyridin-2-yl]methyl}-5-(1,3-oxazol-2-yl)pyrazine-2-carboxamide]",0.7 nM
17,"Cc1nc(C(=O)NCc2nccn2C(C)C)c(N)nc1-c1ncco1 [Ex-87, 3-amino-6-methyl-N-{[1-(1-methylethyl)-1H-imidazol-2-yl]methyl}-5-(1,3-oxazol-2-yl)pyrazine-2-carboxamide]",0.471 nM
18,"Cc1ccc(CNC(=O)c2nc(C)c(-c3ncco3)nc2N)nc1-c1ccccn1 [Ex-88, 3-amino-6-methyl-N-[(3-methyl-2,2′-bipyridin-6-yl)methyl]-5-(1,3-oxazol-2-yl)pyrazine-2-carboxamide]",6.16 nM
19,"Cc1ccc(C(C)C)nc1CNC(=O)c1nc(C)c(-c2ncco2)nc1N [Ex-89, 3-amino-6-methyl-N-{[3-methyl-6-(1-methylethyl)pyridin-2-yl]methyl}-5-(1,3-oxazol-2-yl)pyrazine-2-carboxamide]",0.746 nM
20,"CCOCCc1ccc(C)c(CNC(=O)c2nc(C)c(-c3ncco3)nc2N)n1 [Ex-90, 3-amino-N-{[6-(2-ethoxyethyl)-3-methylpyridin-2-yl]methyl}-6-methyl-5-(1,3-oxazol-2-yl)pyrazine-2-carboxamide]",4.95 nM
21,"Cc1nc(C(=O)NCc2cccn(CC(F)F)c2=O)c(N)nc1-c1ncco1 [Ex-91, 3-amino-N-{[1-(2,2-difluoroethyl)-2-oxo-1,2-dihydropyridin-3-yl]methyl}-6-methyl-5-(1,3-oxazol-2-yl)pyrazine-2-carboxamide]",2.93 nM
22,"Cc1nc(C(=O)NCc2nc(C(F)(F)F)cn2C)c(N)nc1-c1ncco1 [Ex-92, 3-amino-6-methyl-N-{[1-methyl-4-(trifluoromethyl)-1H-imidazol-2-yl]methyl}-5-(1,3-oxazol-2-yl)pyrazine-2-carboxamide]",11.4 nM
23,"Cc1nc(C(=O)NCC2(C#N)CCC2)c(N)nc1-c1ncco1 [Ex-93, 3-amino-N-[(1-cyanocyclobutyl)methyl]-6-methyl-5-(1,3-oxazol-2-yl)pyrazine-2-carboxamide]",4 nM
24,"Cc1nc(C(=O)NCc2cccc3cc[nH]c23)c(N)nc1-c1ncco1 [Ex-95, 3-amino-N-(1H-indol-7-ylmethyl)-6-methyl-5-(1,3-oxazol-2-yl)pyrazine-2-carboxamide]",0.276 nM
25,"Cc1nc(C(=O)NCc2cnc3ccccn23)c(N)nc1-c1ncco1 [Ex-96, 3-amino-N-(imidazo-[1,2-a]pyridin-3-yl-methyl)-6-methyl-5-(1,3-oxazol-2-yl)-pyrazine-2-carboxamide]",12.8 nM
26,"Cc1nc(C(=O)NCc2c(C)nc3ccccn23)c(N)nc1-c1ncco1 [Ex-97, 3-amino-6-methyl-N-[(2-methylimidazo[1,2-a]pyridin-3-yl)methyl]-5-(1,3-oxazol-2-yl)pyrazine-2-carboxamide]",35.2 nM
27,"Cc1nc(C(=O)NCc2ccc3c(n2)NCCC3)c(N)nc1-c1ncco1 [Ex-98, 3-amino-6-methyl-5-(1,3-oxazol-2-yl)-N-(5,6,7,8-tetrahydro-1,8-naphthyridin-2-ylmethyl)pyrazine-2-carboxamide]",2.93 nM
28,"Cc1nc(C(=O)NCc2ccc[n+]([O-])c2)c(N)nc1-c1ncco1 [Ex-99, 3-amino-6-methyl-5-(1,3-oxazol-2-yl)-N-[(1-oxidopyridin-3-yl)methyl]pyrazine-2-carboxamide]",208 nM
29,"Cc1nc(C(=O)NCc2ncn(CC3CC3)c2C)c(N)nc1-c1ncco1 [Ex-100, 3-amino-N-{[1-(cyclopropylmethyl)-5-methyl-1H-imidazol-4-yl]methyl}-6-methyl-5-(1,3-oxazol-2-yl)pyrazine-2-carboxamide]",110 nM
